Results on six molecules are retold here after patent US20180209956A1, “HTS Assay for Identifying Small Molecule Inhibitors of RAD52 and Uses of Identified Small Molecule Inhibitors for Treatment and Prevention of BRCA-Deficient Malignancies” (University of Iowa Research Foundation, priority 2015, published 2018).

Data set [1] can be described thus: Solubility observed during testing. The data set is classed as physicochemical.
The target in data set [2] is T1, RAD52 (Homo sapiens, UniProt P43351).
T1 sequence (P43351 1-418): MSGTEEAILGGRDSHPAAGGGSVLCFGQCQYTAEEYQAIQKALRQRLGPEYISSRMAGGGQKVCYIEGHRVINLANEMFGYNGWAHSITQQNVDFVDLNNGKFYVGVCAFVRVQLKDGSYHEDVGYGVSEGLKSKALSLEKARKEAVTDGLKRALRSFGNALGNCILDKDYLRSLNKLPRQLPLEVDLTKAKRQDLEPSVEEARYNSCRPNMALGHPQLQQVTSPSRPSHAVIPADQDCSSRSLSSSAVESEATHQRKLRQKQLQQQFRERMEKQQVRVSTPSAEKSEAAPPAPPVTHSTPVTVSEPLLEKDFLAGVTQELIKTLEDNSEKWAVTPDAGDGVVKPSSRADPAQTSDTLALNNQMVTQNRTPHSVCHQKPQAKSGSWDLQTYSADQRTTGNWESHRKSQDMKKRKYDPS
To be noted: cited from earlier work.

A further data set deals with T2, RPA-ssDNA interaction (Homo sapiens, UniProt P15927+P27694+P35244).
T2 construct: made in house
The experiment in a line: FRET titration of the RPA-Cy3-dT30-Cy5 complex. The data set is classed as binding. An excerpt:
Compounds ‘1’ and ‘6’ inhibit RAD52 binding to and annealing of the RPA-coated ssDNA: In the cell, ssDNA is typically found in complex with Replication protein A (RPA), which is the major eukaryotic ssDNA-binding protein essential for DNA replication, repair and recombination (Wold, 1997, Oakley and Patrick, 2010, Chen and Wold, 2014). The RPA-ssDNA complex is a natural substrate for the RDA52-mediated strand annealing. To confirm that compounds ‘1’ and ‘6’ can inhibit the RAD52 binding to and annealing of the RPA-coated ssDNA we added stoichiometric amounts of RPA (1 RPA per 30 nucleotides of ssDNA) to the FRET-based ssDNA binding/wrapping and ssDNA annealing experiments described above. RPA binds ssDNA with high affinity and extends the ssDNA to its contour length. In our assays such an extension manifests as a distinct FRET state of ˜0.3, which is readily distinguished from a FRET state of ˜0.48 of free Cy3-dT30-Cy5 ssDNA, as well as ˜0.63 FRET of the stoichiometric ssDNA-RPA-RAD52 complex (see FIG. 2 Supplement 1 and (Grimme and Spies, 2011) for details). […] Both, however, inhibited the RAD52 binding to and wrapping of RPA-coated ssDNA with IC50 values identical to those determined without RPA (FIG. 2e and FIG. 3e).
(§1) where FRET0 is the initial FRET value of RAD52-ssDNA complex in the absence of the compound and FRETmin is the FRET value at complete inhibition. FRET values were calculated as an average of three or more independent annealing reactions plotted against the concentration of the compound. Inhibition of the RAD52-dsDNA interaction was assayed in a similar experiment, except the stoichiometric complexes containing 1 nM molecules of Cy3-Oligo28-Cy5 duplex DNA and 10 nM RAD52. […] In all experiments, the FRET values for each data point were corrected for the effects of the compounds on the respective substrate in the absence of RAD52.

Data set [3] addresses T1, RAD52. The data set can be described thus: WaterLOGSY NMR analysis of compound binding to RAD52. Further details: made in house. To be noted: 20 or 40 μM compound, 3.3 μM RAD52. How it is done: In WaterLOGSY spectrum, if a compound binds to a protein, the compound will receive negative nuclear Overhauser effects (NOEs) due to the slow tumbling of the protein-compound complex, leading to a positive WaterLOGSY peak.
(§2) WaterLOGSY NMR analysis of the compound binding to RAD52 and RPA proteins: Compound binding to RAD52 and RPA proteins was analyzed using water-ligand observation with gradient spectroscopy (WaterLOGSY) NMR experiments (Dalvit et al., 2001, Dalvit et al., 2000). The WaterLOGSY spectra of compounds in the presence of RAD52 or RPA were acquired using a water NOE mixing time of 1 s and a T2 relaxation filter of 50 ms just before data acquisition to suppress the broad signals derived from protein. The protein buffer used in the experiments contains 10 mM Tris-d11, 75 mM KCl, 0.25 mM EDTA, pH 7.5, and 10% D20. All NMR data were acquired on a Bruker Avance II 800 MHz NMR spectrometer equipped with a sensitive cryoprobe and recorded at 25° C. The ^1H chemical shifts were referenced to 2,2-dimethyl-2-silapentane-5-sulfonate (DSS). NMR spectra were processed using NMR Pipe (Delaglio et al., 1995) and analysed using NMR View (Johnson and Blevins, 1994).

Another data set deals with T3, RAD52-dsDNA interaction (Homo sapiens, UniProt P43351).
T3 construct: made in house
T3 sequence (P43351 1-418): T1 sequence (P43351 1-418)
The data set can be described thus: FRET-based RAD52-dsDNA binding assay. The settings on record: 1 nM dsDNA, 10 nM RAD52. From the text:
These assays utilize two complementary single stranded 28-nucleotide-long substrates, which contain either Cy3 (T-28) or Cy5 (P-28) incorporated into the middle of the respective DNA strand. When the substrates are annealed by RAD52, the Cy3 and Cy5 dyes are separated by 3 base pairs and yield a high FRET signal (FIG. 2 Supplement 2). […] The annealing reactions were initiated by mixing two half reactions and observing the change in FRET over time in the presence of varying concentrations of small molecules. An increasing FRET value over time indicates formation of the dsDNA duplex which brings the two dyes in close proximity (FIG. 2 Supplement 2). Fitting the annealing data to a double exponential allowed us to calculate and compare the final extent of annealing at varying concentrations of each compound compared to RAD52 alone. We plotted the final extent of annealing vs the concentration of the compound and calculated an IC50 of annealing inhibition.
where FRET0 is the initial FRET value of RAD52-ssDNA complex in the absence of the compound and FRETmin is the FRET value at complete inhibition. FRET values were calculated as an average of three or more independent annealing reactions plotted against the concentration of the compound. […]

The next data set deals with T4, RPA (Homo sapiens, UniProt P15927+P27694+P35244).
T4 construct: made in house
The data set can be described thus: WaterLOGSY NMR analysis of compound binding to RPA. To be noted: 20 or 40 μM compound, 3.3 μM RPA.
Text: Compounds ‘1’ and ‘6’ physically interact with RAD52: To confirm that the selected compounds bind RAD52, we employed water-ligand observation with gradient spectroscopy (WaterLOGSY), an NMR technique, which is based on transfer of magnetization from bulk water to the protein-bound compound of interest (Dalvit et al., 2001, Dalvit et al., 2000). In WaterLOGSY spectrum, if a compound binds to a protein, the compound will receive negative nuclear Overhauser effects (NOEs) due to the slow tumbling of the protein-compound complex, leading to a positive WaterLOGSY peak.
as §2

Data set [4] deals with T5, RAD52-RPA-Cy3-dT30-Cy5 complex (Homo sapiens, UniProt P43351).
T5 construct: made in house
The experiment in a line: FRET-based RAD52 binding/wrapping of RPA-coated ssDNA. How it is done:
RPA binds ssDNA with high affinity and extends the ssDNA to its contour length.
as §1

The next data set addresses T6, RAD52-ssDNA interaction (Homo sapiens, UniProt P43351).
T6 construct: made in house
T6 sequence (P43351 1-418): T1 sequence (P43351 1-418)
The data set can be described thus: FRET-based ssDNA binding and wrapping assay (RAD52-Cy3-dT30-Cy5 complex). The settings on record: FRET-based competition assay; read-out: IC50, RAD52-ssDNA interaction. How it is done: We titrated increasing amounts of each compound into a cuvette containing preformed stoichiometric RAD52-Cy3-dT30-Cy5 complexes (1 nM Cy3-dT30-Cy5 and 8 nM RAD52). […] At each concentration of the compound, the FRET signal was adjusted for the change in Cy3 and Cy5 fluorescence in the presence of the compound, but in the absence of protein.
(§3) FRET-based DNA binding and annealing assays: FRET-based ssDNA binding, dsDNA binding, and annealing assays were carried out as previously described (Grimme et al., 2010, Grimme and Spies, 2011) using Cary Eclipse spectrofluorimeter (Varian) at 25° C. in buffer containing 30 mM Tris-Acetate pH7.5, 1 mM DTT, and 0.1 mg/mL BSA. Cy3 dye was excited at 530 nm and its emission was monitored at 565 nm. Emission of Cy5 acceptor fluorophore excited through the energy transfer from Cy3 donor is monitored at 660 nm simultaneously with emission of Cy3 dye. Both the excitation and the emission slit widths were set to 10 nm.
All experiments were performed in triplicates, and the data are shown as averages and standard deviations for three independent measurements. To remove possible experimental artifacts associated with chromogenic or fluorogenic compounds, as well as with the compounds that may quench or enhance Cy3 or Cy5 fluorescence, we also performed control titrations whereby we titrated each compound into 1 nM Cy3-dT30-Cy5 in the absence of RAD52. For each compound concentration we subtracted the difference in the FRET signal in the presence and absence of the compound from the respective FRET signal in the presence of RAD52. The FRET signal corrected for the compound fluorescence was calculated using the equation: […]
as previously described (Grimme et al., 2010, Grimme and Spies, 2011) and plotted as a function of compound concentration and fitted to the following inhibition model”
as §1

Data set [5] deals with T7, RAD52 (Homo sapiens, UniProt P43351 P43351:1-418).
T7 sequence: T1 sequence (P43351 1-418)
The data set can be described thus: competition; 10 nM poly(dT)-100 fully inhibits wrapped RAD52-Cy3-dT30-Cy5 complex (100 nM RAD52, 15 nM dT30); 20 mM Hepes pH 7.5, 1 mM DTT, 0.1 mg/mL BSA. The settings on record: tags: 6xHis; chain copies: heptameric ring per 30-mer ssDNA (stated).

Data set [6] has as its target T7, RAD52. The data set can be described thus: method FRET; stoichiometric wrapped complex at about 8 nM RAD52 with 1 nM ssDNA; 30 mM Tris-acetate pH 7.5, 1 mM DTT, 0.1 mg/mL BSA, 25 C; also bound when ssDNA is RPA-coated (FRET about 0.63). The settings on record: tags: 6xHis; chain copies: heptameric ring per 30-mer ssDNA (stated); label: Cy3 and Cy5 at the ends. How it is done:
as §3

The target in data set [7] is RPA (RPA70/RPA35/RPA14 heterotrimer) (UniProt P27694;P15927;P35244 P27694:1-616,P15927:1-270,P35244:1-121). The data set can be described thus: FRET; 1:1 stoichiometric complex, FRET about 0.3 vs about 0.48 for free ssDNA; 30 mM Tris-acetate pH 7.5, 25 C. To be noted: tags: untagged; label: Cy3 and Cy5 at the ends.
Chain of RPA (RPA70/RPA35/RPA14 heterotrimer) (P27694 whole entry, chain 1 of 3): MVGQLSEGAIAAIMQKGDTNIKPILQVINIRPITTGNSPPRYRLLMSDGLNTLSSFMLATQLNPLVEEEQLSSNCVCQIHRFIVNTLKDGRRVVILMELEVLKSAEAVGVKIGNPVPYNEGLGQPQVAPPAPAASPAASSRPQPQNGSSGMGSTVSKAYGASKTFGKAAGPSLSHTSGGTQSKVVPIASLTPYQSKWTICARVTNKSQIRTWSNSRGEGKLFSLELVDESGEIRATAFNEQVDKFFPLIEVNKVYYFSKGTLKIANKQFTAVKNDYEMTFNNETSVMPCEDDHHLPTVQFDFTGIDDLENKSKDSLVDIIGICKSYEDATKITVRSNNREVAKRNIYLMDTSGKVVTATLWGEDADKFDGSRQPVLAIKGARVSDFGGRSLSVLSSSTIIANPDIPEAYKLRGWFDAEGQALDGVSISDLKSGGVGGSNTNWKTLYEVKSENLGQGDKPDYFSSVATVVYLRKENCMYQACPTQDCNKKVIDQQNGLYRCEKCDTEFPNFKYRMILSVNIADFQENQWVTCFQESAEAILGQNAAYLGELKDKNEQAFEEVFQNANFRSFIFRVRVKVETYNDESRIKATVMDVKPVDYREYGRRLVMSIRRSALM
Chain of RPA (RPA70/RPA35/RPA14 heterotrimer) (P15927 whole entry, chain 2 of 3): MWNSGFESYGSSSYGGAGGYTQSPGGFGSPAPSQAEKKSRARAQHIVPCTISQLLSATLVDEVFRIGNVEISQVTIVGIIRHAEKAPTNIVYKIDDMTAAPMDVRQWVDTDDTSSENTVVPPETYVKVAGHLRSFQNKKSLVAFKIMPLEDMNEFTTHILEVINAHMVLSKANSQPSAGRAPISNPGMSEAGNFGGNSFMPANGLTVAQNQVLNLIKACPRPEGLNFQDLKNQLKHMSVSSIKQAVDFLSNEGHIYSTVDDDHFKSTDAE
Chain of RPA (RPA70/RPA35/RPA14 heterotrimer) (P35244 whole entry, chain 3 of 3): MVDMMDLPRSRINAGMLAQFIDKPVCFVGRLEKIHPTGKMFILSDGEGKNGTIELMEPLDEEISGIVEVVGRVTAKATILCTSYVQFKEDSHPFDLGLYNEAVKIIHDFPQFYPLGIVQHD

T2 sequence (P27694 whole entry): as the sequence (P27694 whole entry, chain 1 of 3) above
T2 sequence (P15927 whole entry): as the sequence (P15927 whole entry, chain 2 of 3) above
T2 sequence (P35244 whole entry): as the sequence (P35244 whole entry, chain 3 of 3) above
T4 sequence (P27694 whole entry): as the sequence (P27694 whole entry, chain 1 of 3) above
T4 sequence (P15927 whole entry): as the sequence (P15927 whole entry, chain 2 of 3) above
T4 sequence (P35244 whole entry): as the sequence (P35244 whole entry, chain 3 of 3) above
T5 sequence (P27694 whole entry partner, one chain of several): as the sequence (P27694 whole entry, chain 1 of 3) above
T5 sequence (P15927 whole entry partner, one chain of several): as the sequence (P15927 whole entry, chain 2 of 3) above
T5 sequence (P35244 whole entry partner, one chain of several): as the sequence (P35244 whole entry, chain 3 of 3) above

With `O=c1c2ccccc2nc(CSc2ncnc3[nH]cnc23)n1-c1cccc(C(F)(F)F)c1` [Compound R27, 2-[(9H-purin-6-ylthio)methyl]-3-[3-(trifluoromethyl)phenyl]-4(3H)-qhinazolinone], the Solubility result in [1] (30 mM Tris-Acetate pH 7.5, 1 mM DTT at 115 μM) is on record as “Insoluble in 30 mM Tris-Acetate pH 7.5, 1 mM DTT at 115 μM”.

For `CCOc1ccccc1NC(=O)c1c(NC(=O)Cc2ccc(OC)cc2)sc2c1CCC2` [Compound R29, N-(2-ethoxyphenyl)-2-{[(4-methoxyphenyl)acetyl]amino)-5,6-dihydro-4H-cyclopenta[b]thiophene-3-carboxamide], the Solubility entry in data set [1] (DMSO at 25 mM) is “Compound is insoluble in DMSO at 25 mM”.

Regarding `NC(Cc1cc(O)c(O)cc1O)C(=O)O` (racemic) [6-hydroxy-DL-dopa], the “Effect on supramolecular assembly of RAD52” value at RAD52 [2] is “disrupts supramolecular assembly of the RAD52 protein”.

The term IC50 denotes the concentration at which inhibition is half-maximal. Consider `O=C(O[C@@H]1O[C@@H]2COC(=O)c3cc(O)c(O)c(O)c3-c3c(cc(O)c(O)c3O)C(=O)O[C@H]([C@H]1O)[C@@H]2O)c1cc(O)c(O)c(O)c1` [NP-004255, corilagin], for which the “Effect on the RPA-ssDNA interaction” value at RPA-ssDNA interaction is “did not affect the RPA-ssDNA complex”. Also, the “Binding to RAD52 by WaterLOGSY” value on RAD52 [3] was “physically interacts with RAD52 protein”. In addition, on RAD52-dsDNA interaction, the “Effect on the RAD52-dsDNA interaction” value was “no effect”. In addition, on RPA, the “Binding to RPA by WaterLOGSY” value is “bound RPA”. Moreover, the IC50 stood at 500 ± 100 nM in [4] and 1500 ± 200 nM at RAD52-ssDNA interaction.

B1: Poly dT100 (ssDNA)
DNA: TTTTTTTTTTTTTTTTTTTTTTTTTTTTTTTTTTTTTTTTTTTTTTTTTTTTTTTTTTTTTTTTTTTTTTTTTTTTTTTTTTTTTTTTTTTTTTTTTTTT
modifications: [none]
On to B1, for which the binding result with RAD52 [5] is recorded as “binds”.

As for TTTTTTTTTTTTTTTTTTTTTTTTTTTTTT (ssDNA) [Cy3-dT30-Cy5], the binding result (with RAD52 [6]; in data set [7]) was “binds” each time.
